Experimental data from patent publication US10646477B1, “5-substituted 2,4-thiazolidinediones (thiohydantoins), pseudothiohydantoins, and propseudothiohydantoins for use as antiviral agents” (Jiva Pharma, Inc., priority 2015, dated 2020).
Values after ≈ are worked out from the molar mass of the structure shown. Like-named read-outs stand apart in the source and are kept apart here.

What was measured:
[1] = test system: HSV-1 McKrae; experiment: McKrae viral yield reduction assay relative to mock treated controls, LSU; assay type: cell-based, Herpes simplex virus type 1
Excerpt: (§1) General Outline of in vitro biology Study: The overall goal of this study was to perform a preliminary evaluation of gross toxicity as well as antiviral effectiveness against HSV-1 and HSV-2, and VZV virus of several pharmaceutical preparations. The HSV-1 and HSV-2 antiviral activity in an in vitro infection system was studied, at the Louisiana State University, Health Sciences System, in New Orleans, and all three above at the University of Alabama, NIAID sponsored laboratories.
(§2) The yield reduction assay (YRA) was used in determining antiviral activity of test compounds such as JIVA Compounds, controls and standards. The virus yield reduction assay is a powerful technique for evaluating the efficacy of antiviral compounds. Monolayer cultures of mammalian cells were grown in 96-well microliter tissue culture plates and infected with virus. Test compounds were added and serially diluted directly with the plates. Following a cycle of virus replication, culture lysates were made and serially diluted in a separate set of uninfected cultures grown in microliter plates. The cultures were incubated, plaques were enumerated in wells containing […] plaques, and virus titers were calculated.

[2] = test system: HSV-2; experiment: Viral yield reduction assay relative to mock treated controls, LSU; assay type: cell-based, Herpes simplex virus type 2
Excerpt: as §1, §2

[3] = test system: Vero cell monolayers; experiment: Gross visible toxicity (CC50), 48 hour continuous treatment, LSU; assay type: cell-based; settings: tested at L (LSU-HSC)
Excerpt: as §1

[4] = CellTiter-Glo toxicity (CC50), U of Alabama / NIH
[5] = test system: HSV-2; experiment: CellTiter-Glo (Cytopathic effect/Toxicity) antiviral assay, U of Alabama / NIH; assay type: cell-based, Herpes simplex virus type 2
Excerpt: as §1

[6] = Gross visible toxicity (CC50), 48 hour continuous treatment, LSU; assay type: cell-based; settings: African green monkey, Vero cell monolayers, tested at L (LSU-HSC)
Excerpt: as §1

[7] = test system: HSV-1; experiment: CellTiter-Glo (Cytopathic effect/Toxicity) antiviral assay, U of Alabama / NIH; assay type: cell-based, Herpes simplex virus type 1
Excerpt: as §1

[8] = test system: VZV; experiment: as above; assay type: cell-based, Varicella zoster virus; settings: for activity against the Varicella-Zoster virus: primary assays at the NIH
Excerpt: as §1

[9] = Aqueous solubility; assay type: physicochemical; settings: water; at 3° C.
[10] = test system: HSV-2; experiment: Plaque reduction and virus yield reduction assay (FIGS. 1-6); assay type: cell-based, Herpes simplex virus type 2; design: Mean virus titer: unit not given here
Experimental: as §2
(§3) The concentrations were done in duplicate ranging from 1 mM to 10 mM and the average value is plotted for each concentration. At 2 days post infection the number of plaques were counted. The next day, the wells were collected (media and cells) and titered in a plaque assay.

[11] = test system: cells; experiment: Toxicity to the cells seen in the plaque reduction assay (FIG. 1); assay type: cell-based
Experimental: as §3
FIG. 1: Both Compound 2 (JIVA-0042) and Compound 3 (JIVA-005) appeared to show toxicity at 10 mM, so even if the graphs show almost 100% reduction at this concentration, it is due to toxicity, perhaps cytostatic inhibition of the cells and thus very few or small plaques were observed. However, by 5 mM of Compound 2 (JIVA-0042), the cells look good (no toxicity) and >95% plaque reduction for Compound 2 and a 50% reduction for Compound 3 (JIVA-005), with the plaques still smaller than the control no drug plaques.

[12] = test system: HSV-2; experiment: In vitro HSV-2 tests using published formulations of 1-docosanol with surfactants; assay type: cell-based, Herpes simplex virus type 2; settings: published formulations with various surfactants
Excerpt: The alcohol intermediate, cis,cis,cis,cis,cis,cis-4,7,10,13,16,19-docosahexaenoic-1-ol obtained by reduction of DHA in the above series has the same chain-length as 1-docasonol, but has six conjugated-cis-double bonds for a stiff, elongated backbone, in contrast to a floppy backbone in saturated 1-docasanol.

[13] = cited from earlier work
[14] = test system: cold sores caused by the herpes simplex virus; settings: OTC cream; cited from earlier work
[15] = test system: healthy cells; assay type: cell-based
Experimental: (§4) Another advantage was noted of thiazolidinedione compounds in Formula (I) where R is H, and R1 is an omega-3 PUFA derivative derived from DHA, EPA or ALA were provided to the Cincinnati Children's Hospital Medical Center, for in vitro HSV-2 antiviral activity by the viral yield reduction assay method, (YRA). […] For the DHA derived (JIVA-004), a ^˜44% reduction in virus yield was detected at 0.1 mM, and 22% reduction was detected at 0.01 mM. […] The more water soluble sodium salt of JIVA-004, in the YRA method, was toxic at the highest concentrations tested (10 mM to 7.5 mM).

[16] = test system: HSV-2; experiment: Viral yield reduction assay (YRA), Cincinnati Children's Hospital Medical Center; assay type: cell-based, Herpes simplex virus type 2
Experimental: as §2, §4

[17] = HSV-1, tested at L (LSU-HSC), read-out: EC50
[18] = HSV-2, tested at L (LSU-HSC), read-out: EC50
[19] = Human alphaherpesvirus 1, HSV-1, tested at L (LSU-HSC), read-out: EC50
[20] = CC50, HSV-1 line, tested at A (U of Alabama)
[21] = CC50, HSV-2 line, tested at A (U of Alabama)
[22] = Human alphaherpesvirus 2, HSV-2, tested at A (U of Alabama), read-out: EC50
[23] = Human alphaherpesvirus 2, HSV-2, tested at L (LSU-HSC), read-out: EC50
[24] = Human alphaherpesvirus 1, HSV-1, tested at A (U of Alabama), read-out: EC50
[25] = VZV, tested at A (U of Alabama), read-out: EC50
[26] = VZV line, tested at A (U of Alabama)
[27] = 10 mM, said to be due to toxicity
[28] = CC50, VZV line, tested at A (U of Alabama)

Work on `NC1=NC(=O)CS1` [JIVA-0048, Pseudothiohydantoin] yielded an EC50 [1, 17] of 296 µM, an EC50 [2, 18] of 76 µM and a CC50 ([3]; HSV-1 line) of 19400 µM. It also gave a CC50 ([3]; HSV-2 line) of 19400 µM.
Work on `N=C(N)SC(C(=O)O)c1ccccc1` (centres unmarked) [JIVA-0045, RS-2-[Amino(imino)methylsulfenyl]-2-phenylacetic acid] yielded an EC50 [1, 19] of 238 µM, a CC50 [4, 20] of over 150 µM and a CC50 [4, 21] of over 150 µM. The EC50 [5, 22] was over 150 µM, the EC50 [2, 23] was about 750 µM and the melting point was 230 °C (dec.). For the same compound, the CC50 at 48 h ([6]; HSV-1 line) was 3600 µM, the CC50 at 48 h ([6]; HSV-2 line) was 3600 µM and the EC50 [7, 24] was over 150 µM.
For `CN(C)C(=N)NC(=N)N.N=C1NC(=O)CS1` [JIVA-0049, Pseudothiohydantain Metforminate], the EC50 [8, 25] was under 0.05 µM, the “activity against the Varicella-Zoster virus” value [8] was “highly active” and the CC50 ([4]; HSV-1 line, tested at N (NIH)) was over 300 µM. The CC50 [4, 26] was at least 150 µM and the EC50 ([7]; HSV-1, tested at N (NIH), read-out: EC50) was over 300 µM.
`O=C1CSC(=O)N1` [JIVA-0042, 2,4-Thiazolidinedione] showed a solubility [9] of 30 mg/mL (≈ 256 mM), an EC50 ([8]; Human alphaherpesvirus 3) of over 30 µM and an EC50 ([1]; Human alphaherpesvirus 1) of about 625 µM. The antiviral effect ([10]; 1 mM) was “no antiviral effect”, the “reduction in virus yield” value ([10]; 2.5 mM) was 30% and the plaque reduction ([10]; 5 mM) was over 95%. It also gave a plaque reduction [10, 27] of about 100%, an EC50 ([10]; Human alphaherpesvirus 2, read-out: calculated EC50) of 2930 µM and an inhibition at 5000 µM ([10]; Human alphaherpesvirus 2, read-out: inhibition that can be contributed to Compound 2 activity) of about 45%. The CC50 [4, 20] was over 150 µM, the CC50 [4, 21] was over 150 µM and the CC50 [4, 28] was 80 µM. For the same compound, the EC50 ([5]; Human alphaherpesvirus 2) was over 150 µM, the toxicity ([11]; 5 mM) was “no toxicity” and the toxicity ([11]; 10 mM) was “toxicity”. The EC50 ([2]; Human alphaherpesvirus 2) was 1880 µM, the CC50 at 48 h ([6]; HSV-1 line) was over 14000 µM and the CC50 at 48 h ([6]; HSV-2 line) was over 14000 µM. The EC50 ([7]; Human alphaherpesvirus 1) was over 150 µM.
In the case of `N=C(N)SC(F)C(=O)O` (centres unmarked) [JIVA-0043, RS-(Carbamimidoylsulfanyl)(fluoro)acetic acid], the EC50 ([8]; Human alphaherpesvirus 3, VZV, tested at A (U of Alabama), read-out: EC50) is reported as under 0.05 µM, the “activity against the Varicella-Zoster virus” value [8] is reported as “highly active” and the EC50 [1, 19] is reported as over 150 µM. It also gave a CC50 [4, 20] of over 150 µM, a CC50 [4, 21] of over 150 µM and a CC50 [4, 28] of over 150 µM. For the same compound, the EC50 [5, 22] was over 150 µM, the EC50 [2, 23] was over 150 µM and the melting point was 178 °C. It also gave a CC50 at 48 h ([6]; HSV-1 line) of about 1000 µM, a CC50 at 48 h ([6]; HSV-2 line) of over 1000 µM and an EC50 [7, 24] of over 150 µM.
In the case of `CN(C)C(=N)NC(=N)N.O=C1CSC(=O)N1` [JIVA-005], the EC50 [8, 25] is reported as 0.09 µM, the “activity against the Varicella-Zoster virus” value [8] is reported as “highly active” and the EC50 [1, 17] is reported as about 625 µM. For the same compound, the Mean virus titer ([10]; 1 mM) was 6.24, the Mean virus titer ([10]; 2.5 mM) was 5.90 and the “reduction in virus yield” value ([10]; 2.5 mM) was “very little reduction”. The Mean virus titer ([10]; 5 mM) was 4.92, the plaque reduction ([10]; 5 mM) was 50% and the Mean virus titer ([10]; 7.5 mM) was 3.86. It also gave a Mean virus titer ([10]; 10 mM) of 2.87, a plaque reduction [10, 27] of about 100% and an EC50 ([10]; Excel, best fit line (FIGS. 4 and 5), read-out: estimated EC50) of about 4000 µM. It also gave an EC50 ([10]; Prism program (FIG. 6), read-out: calculated EC50) of 5040 µM, a CC50 ([4]; HSV-1 line, tested at A (U of Alabama)) of over 150 µM and a CC50 ([4]; HSV-2 line, tested at A (U of Alabama)) of over 150 µM. The CC50 [4, 26] was over 150 µM, the EC50 ([5]; HSV-2, tested at A (U of Alabama), read-out: EC50) was over 150 µM and the toxicity ([11]; 10 mM) was “toxicity”. It also gave an EC50 [2, 18] of about 700 µM, a CC50 ([3]; HSV-2 line) of over 10000 µM and an EC50 ([7]; HSV-1, tested at A (U of Alabama), read-out: EC50) of over 150 µM.
For `CC/C=C\C/C=C\C/C=C\C/C=C\C/C=C\C/C=C\CCCO` [DHA derived primary alcohol, cis,cis,cis,cis,cis,cis-4,7,10,13,16,19-docosahexaenoic-1-ol], the antiviral activity [12] was “ineffective”.
In the case of `CC1SC(=N)NC1=O` (centres unmarked) [JIVA-0044, RS-2-Imino-5-methylthiazolidine-4-one], the EC50 [1, 19] is reported as 1420 µM, the CC50 [4, 20] is reported as over 150 µM and the CC50 [4, 21] is reported as over 150 µM. For the same compound, the EC50 [5, 22] was over 150 µM, the EC50 [2, 23] was 1400 µM and the melting point was 224 to 228 °C (dec.). The CC50 at 48 h ([6]; HSV-1 line) was over 39000 µM, the CC50 at 48 h ([6]; HSV-2 line) was over 39000 µM and the EC50 [7, 24] was over 150 µM.
In the case of `N=C1NC(=O)C(c2ccccc2Cl)S1` (centres unmarked) [JIVA-0046, RS-2-Imino-5-(2′-chlorophenyl) thiazolidine-4-one], the EC50 [1, 19] is reported as 2000 µM, the CC50 [4, 20] is reported as over 150 µM and the CC50 [4, 21] is reported as over 150 µM. It also gave an EC50 [5, 22] of over 150 µM, an EC50 [2, 23] of about 1000 µM and a melting point of 244 to 246 °C. It also gave a CC50 at 48 h ([6]; HSV-1 line) of about 1000 µM, a CC50 at 48 h ([6]; HSV-2 line) of about 1000 µM and an EC50 [7, 24] of over 150 µM.
`CN(C)C(=N)NC(=N)N.Cl` [Met.HCl, 1,1-dimethylbiguanide hydrochloride, reference compound] gave a Mean virus titer ([10]; 1 mM) of 5.98, a Mean virus titer ([10]; 2.5 mM) of 6.05 and a Mean virus titer ([10]; 5 mM) of 5.76. The Mean virus titer ([10]; 7.5 mM) was 4.97, the Mean virus titer ([10]; 10 mM) was 4.32 and the EC50 ([10]; Human alphaherpesvirus 2, read-out: estimated EC50) was about 5000 µM.
For `CCCCCCCCCCCCCCCCCCCCCCO` [1-docosanol, 1-Docosanol], the antiviral activity [12] is listed as “ineffective”, the aqueous solubility [13] is listed as “near zero” and the “mean time of healing” value [14] is listed as 4.1 days.
In the case of `CC/C=C\C/C=C\C/C=C\C/C=C\C/C=C\C/C=C\CCCC1SC(=O)NC1=O` (centres unmarked) [JIVA-004, RS-5-((4Z,7Z,10Z,13Z,16Z,19Z)docosa-4,7,10,13,16,19-hexaen-1-yl)thiazolidine-2,4-dione], the “conservative estimated toxicity index CC50” value [15] is reported as 300 µM, the “reduction in virus yield” value ([16]; 0.01 mM) is reported as 22% and the “reduction in virus yield” value ([16]; 0.1 mM) is reported as about 44%.
